Assay results from PubChem BioAssay AID248 (DTP/NCI, 2004).
Several values for one entry are separate records, joined by “and”; a condition that tells them apart may be missing. Identical values can stand only once. Inconclusive results and toxic doses are left out.

Test system: L1210 leukemia ip in BDF1 mice, survival T/C
Experiment: NCI In Vivo Anticancer Drug Screen. Data for tumor model L1210 Leukemia (intraperitoneal) in B6D2F1 (BDF1) mice
Conditions: endpoint: mean survival time, higher = longer survival
Method in brief: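 Transplantable tumor model; survival measured in treated vs vehicle control mice. Value = treated/control.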

[1] = dose: 100.0 mg/kg/injection, schedule: Q04DX003 (ip), vehicle: Klucel (hydroxypropylcellulose) (HPC)
[2] = dose: 200.0 mg/kg/injection, schedule: Q04DX003 (ip), vehicle: Klucel (hydroxypropylcellulose) (HPC)
[3] = dose: 100.0 mg/kg/injection, schedule: Q01DX009 (ip), vehicle: Klucel (hydroxypropylcellulose) (HPC)
[4] = dose: 200.0 mg/kg/injection, schedule: Q01DX009 (ip), vehicle: Klucel (hydroxypropylcellulose) (HPC)
[5] = dose: 400.0 mg/kg/injection, schedule: Q01DX009 (ip), vehicle: Klucel (hydroxypropylcellulose) (HPC)
[6] = dose: 50.0 mg/kg/injection, schedule: Q01DX009 (ip), vehicle: Klucel (hydroxypropylcellulose) (HPC)
[7] = dose: 400.0 mg/kg/injection, schedule: Q04DX003 (ip), vehicle: Klucel (hydroxypropylcellulose) (HPC)
[8] = dose: 100.0 mg/kg/injection, schedule: Q01DX001 (ip), vehicle: saline
[9] = dose: 200.0 mg/kg/injection, schedule: Q01DX001 (ip), vehicle: saline
[10] = dose: 100.0 mg/kg/injection, schedule: Q01DX001 (ip), vehicle: Klucel (hydroxypropylcellulose) (HPC)
[11] = dose: 200.0 mg/kg/injection, schedule: Q01DX001 (ip), vehicle: Klucel (hydroxypropylcellulose) (HPC)
[12] = dose: 400.0 mg/kg/injection, schedule: Q01DX001 (ip), vehicle: Klucel (hydroxypropylcellulose) (HPC)
[13] = dose: 100.0 mg/kg/injection, schedule: Q01DX001 (ip), vehicle: carboxymethylcellulose (CMC)
[14] = dose: 200.0 mg/kg/injection, schedule: Q01DX001 (ip), vehicle: carboxymethylcellulose (CMC)
[15] = dose: 100.0 mg/kg/injection, schedule: Q04DX003 (ip), vehicle: saline
[16] = dose: 200.0 mg/kg/injection, schedule: Q04DX003 (ip), vehicle: saline
[17] = dose: 100.0 mg/kg/injection, schedule: Q01DX009 (ip), vehicle: saline with Tween-80
[18] = dose: 100.0 mg/kg/injection, schedule: Q04DX003 (ip), vehicle: saline with Tween-80
[19] = dose: 200.0 mg/kg/injection, schedule: Q04DX003 (ip), vehicle: saline with Tween-80
[20] = dose: 400.0 mg/kg/injection, schedule: Q04DX003 (ip), vehicle: saline with Tween-80
[21] = dose: 100.0 mg/kg/injection, schedule: Q04DX002 (ip), vehicle: saline with Tween-80
[22] = dose: 200.0 mg/kg/injection, schedule: Q04DX002 (ip), vehicle: saline with Tween-80
[23] = dose: 400.0 mg/kg/injection, schedule: Q04DX002 (ip), vehicle: saline with Tween-80

`O=C(O)CSC(SCC(=O)O)c1ccccc1Cl` was tested, and the T/C (dose: 50.0 mg/kg/injection, schedule: Q04DX003 (ip), vehicle: Klucel (hydroxypropylcellulose) (HPC)) was 96 % of control, the T/C [1] was 100 % of control and the T/C [2] was 96 % of control.
For `O=c1cc[n]2c(n1)[O][Hg]2`, the T/C (dose: 5.0 mg/kg/injection, schedule: Q01DX001 (ip), vehicle: carboxymethylcellulose (CMC)) was 98 % of control and the T/C (dose: 10.0 mg/kg/injection, schedule: Q01DX001 (ip), vehicle: carboxymethylcellulose (CMC)) was 98 % of control.
`O=C1OC(=O)C(=C(c2ccccc2)c2ccccc2)C1=C(c1ccccc1)c1ccccc1` was tested, and the T/C [3] was 101 % of control, the T/C [4] was 92 % of control and the T/C [5] was 92 % of control.
In the case of `CS(=O)(=O)OCCN(CCOS(C)(=O)=O)c1ccc(N=O)c(F)c1`, the T/C (dose: 7.0 mg/kg/injection, schedule: Q01DX001 (ip), vehicle: saline) is reported as 151 % of control, the T/C (dose: 40.0 mg/kg/injection, schedule: Q01DX001 (ip), vehicle: saline) is reported as 98 % of control and the T/C (dose: 80.0 mg/kg/injection, schedule: Q01DX001 (ip), vehicle: saline) is reported as 93 % of control.
For `C#CCCCCC#C`, the T/C [6] was 98 % of control, the T/C [3] was 106 % of control and the T/C [1] was 98 % of control. For the same compound, the T/C [4] was 97 % of control, the T/C [2] was 91 % of control and the T/C [7] was 86 % of control.
`CC(C)C1(NC(=O)C2C=C3c4cccc5[nH]cc(c45)CC3N(C)C2)OC2(O)C3CCCN3C(=O)C(Cc3ccccc3)N2C1=O` (configuration not stated) (tested in a mixture with another compound) was tested, and the T/C [8] was 107 % of control, the T/C [9] was 102 % of control and the T/C (dose: 400.0 mg/kg/injection, schedule: Q01DX001 (ip), vehicle: saline) was 100 % of control.
For `CC(=O)Nc1nc(C(=O)O)c(CCCCc2ccccc2)c(=O)[nH]1`, the T/C [10] was 95 % of control, the T/C [11] was 98 % of control and the T/C [12] was 101 % of control.
For `CC(=O)OCC1OC(n2c(Br)nc3c(N)ncnc32)C(OC(C)=O)C1OC(C)=O` (configuration not stated), the T/C (dose: 50.0 mg/kg/injection, schedule: Q01DX001 (ip), vehicle: saline) was 98 % of control, the T/C [13] was 98 % of control and the T/C [8] was 95 % of control. The T/C (dose: 100.0 mg/kg/injection, schedule: Q01DX005 (ip), vehicle: saline) was 89 % of control, the T/C [14] was 95 % of control and the T/C [9] was 104 % of control. For the same compound, the T/C (dose: 200.0 mg/kg/injection, schedule: Q01DX005 (ip), vehicle: saline) was 93 % of control and the T/C (dose: 400.0 mg/kg/injection, schedule: Q01DX001 (ip), vehicle: carboxymethylcellulose (CMC)) was 101 % of control.
`Oc1ccc(CNCc2ccccc2)c2cccnc12` was tested, and the T/C (dose: 75.0 mg/kg/injection, schedule: Q01DX001 (ip), vehicle: saline) was 115 % of control.
`CCCC(C)Cc1ccc(C(C)=O)cc1` (configuration not stated) was tested, and the T/C [6] was 101 % of control, the T/C [3] was 106 % of control and the T/C [1] was 104 % of control. The T/C [4] was 89 % of control, the T/C [2] was 105 % of control and the T/C [7] was 105 % of control.
In the case of `O=C1CCC(N2C(=O)C3CC=CCC3C2=O)C(=O)N1` (configuration not stated), the T/C [15] is reported as 104 % of control and 109 % of control, the T/C [16] is reported as 104 % of control and 106 % of control and the T/C (dose: 400.0 mg/kg/injection, schedule: Q04DX003 (ip), vehicle: saline) is reported as 97 % of control and 112 % of control.
In the case of `CC(C)OC(=O)C(=O)Nc1cccc(Cl)c1`, the T/C [10] is reported as 108 % of control, the T/C [11] is reported as 95 % of control and the T/C [12] is reported as 95 % of control.
For `CCCCCCCCCCCCCCCCCC[N+](C)(C)c1nc(Cl)nc(Cl)n1`, the T/C (dose: 13.0 mg/kg/injection, schedule: Q01DX015 (ip), vehicle: carboxymethylcellulose (CMC)) was 98 % of control, the T/C (dose: 25.0 mg/kg/injection, schedule: Q01DX015 (ip), vehicle: carboxymethylcellulose (CMC)) was 92 % of control and the T/C (dose: 37.5 mg/kg/injection, schedule: Q04DX003 (ip), vehicle: Klucel (hydroxypropylcellulose) (HPC)) was 103 % of control. For the same compound, the T/C (dose: 50.0 mg/kg/injection, schedule: Q01DX015 (ip), vehicle: carboxymethylcellulose (CMC)) was 93 % of control, the T/C (dose: 75.0 mg/kg/injection, schedule: Q04DX003 (ip), vehicle: Klucel (hydroxypropylcellulose) (HPC)) was 97 % of control and the T/C [13] was 92 % of control. The T/C (dose: 100.0 mg/kg/injection, schedule: Q01DX015 (ip), vehicle: carboxymethylcellulose (CMC)) was 93 % of control and the T/C [14] was 97 % of control.
In the case of `O=S(=O)(N=C1C=CC(=NS(=O)(=O)c2ccccc2)C=C1)c1ccccc1`, the T/C (dose: 100.0 mg/kg/injection, schedule: Q01DX009 (ip), vehicle: gum acacia) is reported as 98 % of control, the T/C (dose: 100.0 mg/kg/injection, schedule: Q04DX003 (ip), vehicle: gum acacia) is reported as 98 % of control and the T/C (dose: 200.0 mg/kg/injection, schedule: Q01DX009 (ip), vehicle: gum acacia) is reported as 97 % of control. The T/C (dose: 200.0 mg/kg/injection, schedule: Q04DX003 (ip), vehicle: gum acacia) was 98 % of control and the T/C (dose: 400.0 mg/kg/injection, schedule: Q04DX003 (ip), vehicle: gum acacia) was 95 % of control.
For `CN(C)c1ccc(NC2=NCCO2)cc1`, the T/C (dose: 12.5 mg/kg/injection, schedule: Q04DX003 (ip), vehicle: saline) was 95 % of control, the T/C (dose: 25.0 mg/kg/injection, schedule: Q01DX009 (ip), vehicle: saline) was 104 % of control and the T/C (dose: 25.0 mg/kg/injection, schedule: Q04DX003 (ip), vehicle: saline) was 102 % of control. For the same compound, the T/C (dose: 50.0 mg/kg/injection, schedule: Q01DX009 (ip), vehicle: saline) was 95 % of control, the T/C (dose: 50.0 mg/kg/injection, schedule: Q04DX003 (ip), vehicle: saline) was 98 % of control and the T/C [15] was 97 % of control. The T/C [16] was 87 % of control.
With `CCN=C(N)SCCS(=O)(=O)O` the T/C (dose: 100.0 mg/kg/injection, schedule: Q04DX002 (ip), vehicle: saline) was 98 % of control, the T/C (dose: 200.0 mg/kg/injection, schedule: Q04DX002 (ip), vehicle: saline) was 95 % of control and the T/C (dose: 400.0 mg/kg/injection, schedule: Q04DX002 (ip), vehicle: saline) was 92 % of control.
`CC1CCCC[N-]1.CC1CCCC[N-]1.[Cl][Pt+2][Cl]` (configuration not stated) was tested, and the T/C [3] was 97 % of control, the T/C [1] was 98 % of control and the T/C [4] was 102 % of control. The T/C [2] was 96 % of control and the T/C [7] was 102 % of control.
With `C[Si](C)(C)N1N=NC2C(=O)N(c3ccccc3)C(=O)C21` (configuration not stated) the T/C [3] was 105 % of control, the T/C [1] was 92 % of control and the T/C [4] was 110 % of control. The T/C [2] was 102 % of control, the T/C [5] was 112 % of control and the T/C [7] was 103 % of control.
For `CCCCCCCCCCCCCCCCN(C)S(=O)(=O)c1ccc2sc(SC)[n+](C)c2c1` (tested in a mixture with another compound), the T/C [17] was 94 % of control, the T/C [18] was 98 % of control and the T/C (dose: 200.0 mg/kg/injection, schedule: Q01DX009 (ip), vehicle: saline with Tween-80) was 94 % of control. The T/C [19] was 102 % of control, the T/C (dose: 400.0 mg/kg/injection, schedule: Q01DX009 (ip), vehicle: saline with Tween-80) was 102 % of control and the T/C [20] was 96 % of control.
`O=C1C(O)=C(c2ccccc2C(=O)O)C(=O)C(O)=C1c1ccccc1C(=O)O` was tested, and the T/C (dose: 25.0 mg/kg/injection, schedule: Q01DX009 (ip), vehicle: saline with Tween-80) was 101 % of control, the T/C (dose: 50.0 mg/kg/injection, schedule: Q01DX009 (ip), vehicle: saline with Tween-80) was 101 % of control and the T/C (dose: 50.0 mg/kg/injection, schedule: Q04DX002 (ip), vehicle: saline with Tween-80) was 102 % of control. The T/C [17] was 96 % of control, the T/C [21] was 98 % of control and 109 % of control and the T/C [22] was 102 % of control and 113 % of control. The T/C [23] was 98 % of control and 104 % of control.
`Clc1ccc([As](c2ccc(Cl)cc2)c2ccc(Cl)cc2)cc1` was tested, and the T/C [18] was 100 % of control, the T/C [19] was 90 % of control and the T/C [20] was 101 % of control.
`O=C(O)c1c(F)cccc1Cl` was tested, and the T/C [21] was 93 % of control, the T/C [22] was 108 % of control and the T/C [23] was 106 % of control.
